Key:
TLR8 = TLR8 (Homo sapiens (Human), UniProt Q9NR97); assay: TLR8 agonist bioactivity: induction of TNFα protein in monocyte cultures (ELISA, 24 h); assay type: cell-based; conditions: for EC50: TNFα induction, human monocytes, 24 hours; for fold loss of TLR8 agonist potency compared to Compound No. 63-00 (IMDQ): less potent than IMDQ; for TLR8 (% of Compound No. 63-00 EC50 Value): EC50 expressed as percentage of EC50 of Compound No. 63-00
Method: Monocytes were magnetically isolated from PBMCs, prepared as described above, following labeling with CD14 microbeads (Miltenyi Biotec, San Diego Calif.), according to the manufacturer's instructions. […] Culture supernatants were collected and tumor necrosis factor alpha (TNFα) protein levels were measured by ELISA (MabTech, Cincinnati Ohio), according to the manufacturer's instructions.

TLR7 = TLR7 (Homo sapiens (Human), UniProt Q9NYK1); assay: TLR7 agonist bioactivity: induction of IFNα protein in pDC-enriched PBMC cultures (ELISA, 24 h); assay type: cell-based; conditions: for EC50: IFNα induction, pDC-enriched human PBMC, 24 hours; for fold loss of TLR7 agonist potency compared to Compound No. 63-00 (IMDQ): less potent than IMDQ; for TLR7 (% of Compound No. 63-00 EC50 Value): EC50 expressed as percentage of EC50 of Compound No. 63-00
Chain of TLR7 (Q9NYK1 27-1049): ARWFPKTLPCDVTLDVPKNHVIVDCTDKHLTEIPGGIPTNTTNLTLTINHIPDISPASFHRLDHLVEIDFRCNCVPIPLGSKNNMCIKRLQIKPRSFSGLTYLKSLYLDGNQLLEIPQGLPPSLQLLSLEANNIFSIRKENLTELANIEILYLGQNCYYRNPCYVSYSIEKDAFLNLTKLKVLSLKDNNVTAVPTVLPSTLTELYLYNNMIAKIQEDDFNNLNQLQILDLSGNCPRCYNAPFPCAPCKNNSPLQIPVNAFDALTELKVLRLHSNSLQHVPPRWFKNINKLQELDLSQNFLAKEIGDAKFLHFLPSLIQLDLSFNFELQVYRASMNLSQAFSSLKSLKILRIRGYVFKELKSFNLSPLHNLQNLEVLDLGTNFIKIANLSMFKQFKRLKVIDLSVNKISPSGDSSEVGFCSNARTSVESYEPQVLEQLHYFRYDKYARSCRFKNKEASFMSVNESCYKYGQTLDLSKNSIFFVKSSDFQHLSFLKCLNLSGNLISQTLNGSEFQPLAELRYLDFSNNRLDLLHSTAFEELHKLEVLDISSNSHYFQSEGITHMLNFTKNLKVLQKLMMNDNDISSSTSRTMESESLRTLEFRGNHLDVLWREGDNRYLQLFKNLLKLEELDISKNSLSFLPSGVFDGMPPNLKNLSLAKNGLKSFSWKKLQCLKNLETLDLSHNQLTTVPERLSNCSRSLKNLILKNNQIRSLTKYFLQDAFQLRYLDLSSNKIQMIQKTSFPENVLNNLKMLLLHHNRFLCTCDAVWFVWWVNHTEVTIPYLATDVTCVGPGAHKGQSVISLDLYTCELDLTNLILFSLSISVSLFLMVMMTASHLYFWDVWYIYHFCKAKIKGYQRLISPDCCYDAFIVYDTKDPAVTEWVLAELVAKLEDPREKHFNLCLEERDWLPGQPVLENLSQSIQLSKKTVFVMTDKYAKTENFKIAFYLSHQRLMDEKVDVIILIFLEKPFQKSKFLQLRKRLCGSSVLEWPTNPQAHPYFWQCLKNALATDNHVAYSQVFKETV
Method: Plasmacytoid dendritic cell (pDC)—enriched peripheral blood mononuclear cells (PBMCs) were prepared from the blood of a series of human donors (3-5 donors/experiment). PBMCs were isolated using Ficoll-Paque Premium® (GE Healthcare, Chicago Ill.) using methods well known to those in the art. pDCs were magnetically isolated from the total recovered PBMC population using CD304 (BDCA-4/Neuropilin-1) microbeads (Miltenyi Biotec, San Diego Calif.), according to the manufacturer's instructions. Isolated pDCs were then added back to between 1 and 2×10^8 of the corresponding donor's PBMCs for relative enrichment of this cell type. […] Culture supernatants were collected and interferon-alpha (IFNα) protein levels were measured by ELISA (MabTech, Cincinnati Ohio), according to the manufacturer's instructions.

Chain of TLR8 (Q9NR97 27-1041): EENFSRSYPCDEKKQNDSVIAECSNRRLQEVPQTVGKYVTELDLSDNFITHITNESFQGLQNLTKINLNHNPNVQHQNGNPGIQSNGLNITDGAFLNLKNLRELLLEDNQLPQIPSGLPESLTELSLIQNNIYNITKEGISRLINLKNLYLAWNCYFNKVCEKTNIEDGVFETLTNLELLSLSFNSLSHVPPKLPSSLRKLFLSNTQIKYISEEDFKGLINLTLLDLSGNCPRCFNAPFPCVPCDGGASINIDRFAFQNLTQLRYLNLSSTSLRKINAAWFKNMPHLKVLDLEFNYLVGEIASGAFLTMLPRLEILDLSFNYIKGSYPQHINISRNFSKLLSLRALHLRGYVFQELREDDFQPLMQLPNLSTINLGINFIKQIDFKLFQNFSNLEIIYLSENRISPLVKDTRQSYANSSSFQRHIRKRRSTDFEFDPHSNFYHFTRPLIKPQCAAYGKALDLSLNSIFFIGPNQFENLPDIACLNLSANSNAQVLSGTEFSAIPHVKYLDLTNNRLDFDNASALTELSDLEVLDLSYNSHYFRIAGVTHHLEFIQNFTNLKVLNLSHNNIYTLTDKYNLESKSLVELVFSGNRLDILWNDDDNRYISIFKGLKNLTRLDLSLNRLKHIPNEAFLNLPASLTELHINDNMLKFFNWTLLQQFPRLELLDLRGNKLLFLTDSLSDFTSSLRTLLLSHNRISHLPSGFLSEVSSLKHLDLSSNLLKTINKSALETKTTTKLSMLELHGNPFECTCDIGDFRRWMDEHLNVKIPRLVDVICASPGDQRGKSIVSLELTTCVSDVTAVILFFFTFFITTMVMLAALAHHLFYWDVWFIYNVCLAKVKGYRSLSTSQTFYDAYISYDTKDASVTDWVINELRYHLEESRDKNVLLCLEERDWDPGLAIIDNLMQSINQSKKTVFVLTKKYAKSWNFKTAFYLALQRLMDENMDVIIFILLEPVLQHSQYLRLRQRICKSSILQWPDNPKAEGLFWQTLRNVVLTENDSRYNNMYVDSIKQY

Row | Compound | EC50 (TLR8) | fold loss of TLR8 agonist potency compared to Compound No. 63-00 (IMDQ) (TLR8) | EC50 (TLR7) | fold loss of TLR7 agonist potency compared to Compound No. 63-00 (IMDQ) (TLR7) | TLR8 (% of Compound No. 63-00 EC50 Value) (TLR8) | TLR7 (% of Compound No. 63-00 EC50 Value) (TLR7) | fold increase of TLR8 agonist potency compared to Compound No. 63-00 (IMDQ) (TLR8; more potent than IMDQ)
1 | CCCCCCCCC(=O)NCc1ccc(Cn2c(CCCC)nc3c(N)nc4ccccc4c32)cc1 [Compound No. 63-05, N-(4-((4-amino-2-butyl-1H-imidazo[4,5-c]quinolin-1-yl)methyl)benzyl)nonanamide] | 2170 nM | 10-26 fold | 3 nM | – | – | – | –
2 | CCCCCCCCCC(=O)NCc1ccc(Cn2c(CCCC)nc3c(N)nc4ccccc4c32)cc1 [Compound No. 63-06, N-(4-((4-amino-2-butyl-1H-imidazo[4,5-c]quinolin-1-yl)methyl)benzyl)decanamide] | 2750 nM | 10-26 fold | 2 nM | – | – | – | –
3 | CCCCCCCCCCC(=O)NCc1ccc(Cn2c(CCCC)nc3c(N)nc4ccccc4c32)cc1 [Compound No. 63-07, N-(4-((4-amino-2-butyl-1H-imidazo[4,5-c]quinolin-1-yl)methyl)benzyl)undecanamide] | 2640 nM | 10-26 fold | 1 nM | – | – | – | –
4 | CCCCCCCCCCCC(=O)NCc1ccc(Cn2c(CCCC)nc3c(N)nc4ccccc4c32)cc1 [Compound No. 63-08, N-(4-((4-amino-2-butyl-1H-imidazo[4,5-c]quinolin-1-yl)methyl)benzyl)dodecanamide] | 1270 nM | did not lose as much agonist activity | 3 nM | – | – | – | –
5 | CCCCCCCCCCCCC(=O)NCc1ccc(Cn2c(CCCC)nc3c(N)nc4ccccc4c32)cc1 [Compound No. 63-09, N-(4-((4-amino-2-butyl-1H-imidazo[4,5-c]quinolin-1-yl)methyl)benzyl)tridecanamide] | 970 nM | did not lose as much agonist activity | 2 nM | – | – | – | –
6 | CCCCCCCNCc1ccc(Cn2c(CCCC)nc3c(N)nc4ccccc4c32)cc1 [Compound No. 63-19, 2-butyl-1-(4-((heptylamino)methyl)benzyl)-1H-imidazo[4,5-c]quinolin-4-amine] | 752 nM | – | 24 nM | – | – | – | –
7 | CCCCCCCCNCc1ccc(Cn2c(CCCC)nc3c(N)nc4ccccc4c32)cc1 [Compound No. 63-20, 2-butyl-1-(4-((octylamino)methyl)benzyl)-1H-imidazo[4,5-c]quinolin-4-amine] | 1220 nM | – | 51 nM | – | – | – | –
8 | CCCCCCCCCNCc1ccc(Cn2c(CCCC)nc3c(N)nc4ccccc4c32)cc1 [Compound No. 63-21, 2-butyl-1-(4-((nonylamino)methyl)benzyl)-1H-imidazo[4,5-c]quinolin-4-amine] | 947 nM | – | 68 nM | – | – | – | –
9 | CCCCCCCCCCNCc1ccc(Cn2c(CCCC)nc3c(N)nc4ccccc4c32)cc1 [Compound No. 63-22, 2-butyl-1-(4-((decylamino)methyl)benzyl)-1H-imidazo[4,5-c]quinolin-4-amine] | 821 nM | – | 62 nM | – | – | – | –
10 | CCCCCCCCCCCCNCc1ccc(Cn2c(CCCC)nc3c(N)nc4ccccc4c32)cc1 [Compound No. 63-24, 2-butyl-1-(4-((dodecylamino)methyl)benzyl)-1H-imidazo[4,5-c]quinolin-4-amine] | 1040 nM | – | 32 nM | – | – | – | –
11 | CCCCCCCCCCCCCCCCCCNCc1ccc(Cn2c(CCCC)nc3c(N)nc4ccccc4c32)cc1 [Compound No. 63-29, 2-butyl-1-(4-((octadecylamino)methyl)benzyl)-1H-imidazo[4,5-c]quinolin-4-amine] | 2770 nM | over 12 fold | 19 nM | 19 fold | – | – | –
12 | CCCCCCCCCCCCCCCC(=O)NCc1ccc(Cn2c(CCCC)nc3c(N)nc4ccccc4c32)cc1 [Compound No. 63-31, N-(4-((4-amino-2-butyl-1H-imidazo[4,5-c]quinolin-1-yl)methyl)benzyl)palmitamide, reference compound] | 2150 nM | 10-26 fold | 3 nM | – | – | – | –
13 | CCCCCCCCCCCCCCCCNCc1ccc(Cn2c(CCCC)nc3c(N)nc4ccccc4c32)cc1 [Compound No. 63-32, 2-butyl-1-(4-((hexadecylamino)methyl)benzyl)-1H-imidazo[4,5-c]quinolin-4-amine, reference compound] | 3100 nM | – | 157 nM | – | – | – | –
14 | CCCCc1nc2c(N)nc3ccccc3c2n1Cc1ccc(CNC(=O)CC2CC2)cc1 [Compound No. 63-34, N-(4-((4-amino-2-butyl-1H-imidazo[4,5-c]quinolin-1-yl)methyl)benzyl)-2-cyclopropylacetamide] | 1490 nM | 7 fold | 8 nM | 8 fold | – | – | –
15 | CCCCc1nc2c(N)nc3ccccc3c2n1Cc1ccc(CNCCC2CCC2)cc1 [Compound No. 63-35, 2-butyl-1-(4-(((2-cyclobutylethyl)amino)methyl)benzyl)-1H-imidazo[4,5-c]quinolin-4-amine] | 70 nM | – | 12 nM | – | 53% | 715% | –
16 | CCCCc1nc2c(N)nc3ccccc3c2n1Cc1ccc(CNCCC2CCCC2)cc1 [Compound No. 63-36, 2-butyl-1-(4-(((2-cyclopentylethyl)amino)methyl)benzyl)-1H-imidazo[4,5-c]quinolin-4-amine] | 117 nM | – | 11 nM | 10.9 fold | 72% | 1,085% | –
17 | CCCCc1nc2c(N)nc3ccccc3c2n1Cc1ccc(CNCC2CC2)cc1 [Compound No. 63-38, 2-butyl-1-(4-(((cyclopropylmethyl)amino)methyl)benzyl)-1H-imidazo[4,5-c]quinolin-4-amine] | – | – | – | – | 37% | 345% | –
18 | CCCCc1nc2c(N)nc3ccccc3c2n1Cc1ccc(CNCC2CC2C)cc1 (stereo not shown) [Compound No. 63-39, 2-butyl-1-(4-((((2-methylcyclopropyl)methyl)amino)methyl)benzyl)-1H-imidazo[4,5-c]quinoline-4-amine] | – | – | – | – | 48% | 220% | –
19 | CCCCc1nc2c(N)nc3ccccc3c2n1Cc1ccc(CNCC2CC2(C)C)cc1 (stereo not shown) [Compound No. 63-40, 2-butyl-1-(4-((((2,2-dimethylcyclopropyl)methyl)amino)methyl)benzyl)-1H-imidazo[4,5-c]quinolin-4-amine] | – | – | – | – | 51% | 215% | –
20 | CCCCc1nc2c(N)nc3ccccc3c2n1Cc1ccc(CNCC(C)(C)C2CC2)cc1 [Compound No. 63-41, 2-butyl-1-(4-(((2-cyclopropyl-2-methylpropyl)amino)methyl)benzyl)-1H-imidazo[4,5-c]quinoline-4-amine] | – | – | – | – | 43% | 360% | –
21 | CCCCc1nc2c(N)nc3ccccc3c2n1Cc1ccc(CNCCC2(C)CC2)cc1 [Compound No. 63-42, 2-butyl-1-(4-(((2-(1-methylcyclopropyl)ethyl)amino)methyl)benzyl)-1H-imidazo[4,5-c]quinolin-4-amine] | – | – | – | – | 85% | 445% | slightly improved to slightly inferior
